Test results taken from PubChem BioAssay (NCI).
“And” between values parts separate entries of the source, which are not always exact repeats. Equal entries are not always repeated.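 Five compound concentrations were applied to cells in 96-well plates for 48 hours; endpoints were derived by simple linear interpolation of the resulting dose-response curve. GI50: concentration for 50% inhibition of growth. TGI denotes the concentration required for complete inhibition of growth.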

Key:
Assay in all cases: inhibition of tumour cell growth, NCI panel, 48 h
NCI-H522 lung = system: NCI-H522 lung
PC-3 prostate = system: PC-3 prostate
SR leukemia = system: SR leukemia
UO-31 renal = system: UO-31 renal
SK-OV-3 ovarian = system: SK-OV-3 ovarian
HCT-116 colon = system: HCT-116 colon
SF-268 CNS = system: SF-268 CNS
SF-295 CNS = system: SF-295 CNS
NCI/ADR-RES ovarian = system: NCI/ADR-RES ovarian
NCI-H23 lung = system: NCI-H23 lung
EKVX NSCLC = system: EKVX NSCLC
MDA-MB-435 = system: MDA-MB-435
786-0 renal = system: 786-0 renal
MCF7 breast = system: MCF7 breast
HOP-62 NSCLC = system: HOP-62 NSCLC
DU-145 prostate = system: DU-145 prostate
SK-MEL-5 melanoma = system: SK-MEL-5 melanoma
MDA-MB-231 breast = system: MDA-MB-231 breast
K-562 leukemia = system: K-562 leukemia
UACC-62 melanoma = system: UACC-62 melanoma
LOX IMVI melanoma = system: LOX IMVI melanoma
M14 melanoma = system: M14 melanoma
HOP-92 NSCLC = system: HOP-92 NSCLC
NCI-H460 lung = system: NCI-H460 lung
HCC-2998 colon = system: HCC-2998 colon
SNB-19 CNS = system: SNB-19 CNS
T-47D breast = system: T-47D breast
SN12C renal = system: SN12C renal
SK-MEL-2 melanoma = system: SK-MEL-2 melanoma
SW-620 colon = system: SW-620 colon
CCRF-CEM leukemia = system: CCRF-CEM leukemia
ACHN renal = system: ACHN renal
A498 renal = system: A498 renal
BT-549 breast = system: BT-549 breast
OVCAR-3 ovarian = system: OVCAR-3 ovarian
RPMI-8226 leukemia = system: RPMI-8226 leukemia
HS 578T breast = system: HS 578T breast
HT29 colon = system: HT29 colon
NCI-H226 lung = system: NCI-H226 lung
A549 NSCLC = system: A549 NSCLC
OVCAR-8 ovarian = system: OVCAR-8 ovarian
SK-MEL-28 melanoma = system: SK-MEL-28 melanoma
HCT-15 colon = system: HCT-15 colon
COLO 205 colon = system: COLO 205 colon
UACC-257 melanoma = system: UACC-257 melanoma
OVCAR-5 ovarian = system: OVCAR-5 ovarian
KM12 colon = system: KM12 colon
MOLT-4 leukemia = system: MOLT-4 leukemia
OVCAR-4 ovarian = system: OVCAR-4 ovarian
IGROV1 ovarian = system: IGROV1 ovarian
SNB-75 CNS = system: SNB-75 CNS
SF-539 CNS = system: SF-539 CNS
U251 CNS = system: U251 CNS
MALME-3M melanoma = system: MALME-3M melanoma
TK-10 renal = system: TK-10 renal
HL-60(TB) leukemia = system: HL-60(TB) leukemia

`COC(=O)C12CC(NC(=O)c3csc([C@@H](C[C@H](C(C)C)N(C)C(=O)[C@@H](NC(=O)[C@H]4CCCCN4C)C(C)C)OC(C)=O)n3)(C1)C2` was tested, and the GI50 (NCI-H522 lung) was 0.185 nM and < 3.33 nM, the TGI (NCI-H522 lung) was 0.929 nM and < 3.33 nM and the GI50 (PC-3 prostate) was 6.39 nM and 3.33 nM. For the same compound, the TGI (PC-3 prostate) was greater than 33300 nM, the GI50 (SR leukemia) was 0.745 nM and the GI50 (UO-31 renal) was 46.2 nM. The GI50 (SK-OV-3 ovarian) was 6.39 nM and 3.33 nM, the TGI (SK-OV-3 ovarian) was greater than 33300 nM and the GI50 (HCT-116 colon) was 3.02 nM and 3.33 nM. The TGI (HCT-116 colon) was greater than 33300 nM, the GI50 (SF-268 CNS) was 4.88 nM and 3.88 nM and the TGI (SF-268 CNS) was greater than 33300 nM. It also gave a GI50 (SF-295 CNS) of 4.54 nM, a GI50 (NCI/ADR-RES ovarian) of 147 nM and a TGI (NCI/ADR-RES ovarian) greater than 33300 nM. For the same compound, the GI50 (NCI-H23 lung) was 10.4 nM and 3.33 nM, the TGI (NCI-H23 lung) was greater than 33300 nM and the GI50 (EKVX NSCLC) was 18 nM and 4.26 nM. The TGI (EKVX NSCLC) was greater than 33300 nM, the GI50 (MDA-MB-435) was 0.165 nM and the TGI (MDA-MB-435) was 1.69 nM. The GI50 (786-0 renal) was 5 nM and 3.33 nM, the TGI (786-0 renal) was greater than 33300 nM and the GI50 (MCF7 breast) was 0.598 nM and 3.33 nM. The TGI (MCF7 breast) was greater than 33300 nM, the GI50 (HOP-62 NSCLC) was 3.53 nM and the GI50 (DU-145 prostate) was 1.65 nM and 3.33 nM. For the same compound, the TGI (DU-145 prostate) was greater than 33300 nM, the GI50 (SK-MEL-5 melanoma) was 0.829 nM and 3.33 nM and the TGI (SK-MEL-5 melanoma) was 32.4 nM and 173 nM. For the same compound, the GI50 (MDA-MB-231 breast) was 4.34 nM and 3.33 nM, the GI50 (K-562 leukemia) was 0.513 nM and 3.33 nM and the TGI (K-562 leukemia) was greater than 33300 nM. The GI50 (UACC-62 melanoma) was 3.13 nM and 3.33 nM, the TGI (UACC-62 melanoma) was greater than 33300 nM and the GI50 (LOX IMVI melanoma) was 2.17 nM and 3.33 nM. The TGI (LOX IMVI melanoma) was greater than 33300 nM, the GI50 (M14 melanoma) was 1.76 nM and 3.33 nM and the TGI (M14 melanoma) was greater than 33300 nM. For the same compound, the GI50 (HOP-92 NSCLC) was greater than 33300 nM, the TGI (HOP-92 NSCLC) was greater than 33300 nM and the GI50 (NCI-H460 lung) was 2.98 nM and 3.33 nM. For the same compound, the TGI (NCI-H460 lung) was greater than 33300 nM, the GI50 (HCC-2998 colon) was 7.48 nM and 3.33 nM and the TGI (HCC-2998 colon) was greater than 33300 nM. The GI50 (SNB-19 CNS) was 2.2 nM and 3.33 nM, the TGI (SNB-19 CNS) was greater than 33300 nM and the GI50 (T-47D breast) was 4.07 nM. For the same compound, the GI50 (SN12C renal) was 3 nM and 3.33 nM, the TGI (SN12C renal) was greater than 33300 nM and the GI50 (SK-MEL-2 melanoma) was 1.97 nM. The GI50 (SW-620 colon) was 0.535 nM and 3.33 nM, the TGI (SW-620 colon) was greater than 33300 nM and the GI50 (CCRF-CEM leukemia) was 0.518 nM and 3.33 nM. It also gave a TGI (CCRF-CEM leukemia) greater than 33300 nM, a GI50 (ACHN renal) of 17.4 nM and a TGI (ACHN renal) greater than 33300 nM. For the same compound, the GI50 (A498 renal) was 15.3 nM and 4.73 nM, the TGI (A498 renal) was 829 nM and 194 nM and the GI50 (BT-549 breast) was 4.39 nM and 3.41 nM. The TGI (BT-549 breast) was 93.9 nM and 330 nM, the GI50 (OVCAR-3 ovarian) was 0.335 nM and 3.33 nM and the TGI (OVCAR-3 ovarian) was 2.4 nM and 4.41 nM. The GI50 (RPMI-8226 leukemia) was 1.31 nM and 3.33 nM, the TGI (RPMI-8226 leukemia) was greater than 33300 nM and the GI50 (HS 578T breast) was 3.33 nM. For the same compound, the TGI (HS 578T breast) was greater than 33300 nM, the GI50 (HT29 colon) was 1.77 nM and 3.33 nM and the TGI (HT29 colon) was 39.6 nM. The GI50 (NCI-H226 lung) was 18.1 nM and 22.7 nM, the GI50 (A549 NSCLC) was 16.3 nM and 4.13 nM and the TGI (A549 NSCLC) was greater than 33300 nM. The GI50 (OVCAR-8 ovarian) was 4.29 nM and 3.33 nM, the TGI (OVCAR-8 ovarian) was greater than 33300 nM and the GI50 (SK-MEL-28 melanoma) was greater than 33300 nM. The TGI (SK-MEL-28 melanoma) was greater than 33300 nM, the GI50 (HCT-15 colon) was 14.5 nM and 8.01 nM and the TGI (HCT-15 colon) was greater than 33300 nM. The GI50 (COLO 205 colon) was 1.41 nM, the TGI (COLO 205 colon) was 16.2 nM and the GI50 (UACC-257 melanoma) was greater than 33300 nM. The TGI (UACC-257 melanoma) was greater than 33300 nM, the TGI (OVCAR-5 ovarian) was greater than 33300 nM and the GI50 (KM12 colon) was 5.07 nM and 3.33 nM. The TGI (KM12 colon) was greater than 33300 nM, the GI50 (MOLT-4 leukemia) was 6.88 nM and 3.33 nM and the TGI (MOLT-4 leukemia) was greater than 33300 nM. The TGI (OVCAR-4 ovarian) was greater than 33300 nM, the GI50 (IGROV1 ovarian) was 2.37 nM and 3.33 nM and the TGI (IGROV1 ovarian) was greater than 33300 nM. The GI50 (SNB-75 CNS) was 3.33 nM, the TGI (SNB-75 CNS) was greater than 33300 nM and the GI50 (SF-539 CNS) was 2.26 nM. For the same compound, the TGI (SF-539 CNS) was 26.7 nM, the GI50 (U251 CNS) was 4.29 nM and 3.33 nM and the TGI (U251 CNS) was greater than 33300 nM. It also gave a GI50 (MALME-3M melanoma) of 7160 nM, a TGI (MALME-3M melanoma) greater than 33300 nM and a GI50 (TK-10 renal) of 379 nM. The TGI (TK-10 renal) was greater than 33300 nM, the GI50 (HL-60(TB) leukemia) was 0.345 nM and the TGI (HL-60(TB) leukemia) was 3.02 nM.
